Source: ChEMBL document CHEMBL1201862, “PubChem BioAssay data set” (2004)
The source made the active and inactive calls.

Assays:
[1] = Trypanosoma cruzi growth suppression in host cells – NIH3T3 host cells, beta-gal luminescence, confirmation (AID 2044); format: functional, cell-based;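 note: intracellular parasites grown in NIH/3T3 mouse fibroblasts as host cells; luminescent beta-galactosidase reporter signal from transgenic T. cruzi replicating inside host cells; inhibitors lower the luminescence signal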
[2] = NIH3T3 cell viability loss – ATP luminescence, mouse fibroblasts, counter-screen, dose response (AID 2010); format: functional, cell-based;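 note: cells exposed to compound for about 90 hours before reading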
Cytochrome P450 2C19 = Cytochrome P450 2C19 (Homo sapiens, UniProt P33261); assay: Cytochrome panel assay with activity outcomes. Panel member name: p450-cyp2c19 Compounds with AC50 equal or less than 10 uM are considered active; format: functional; settings: read-out: AC50
H4 = assay: Luminescence Cell-Based Dose Response HTS to Identify Activators of 5'UTR Stem-Loop Driven Prion Protein mRNA Translation in H4 Neuroglioblastoma Cells. [Related pubchem assays: 1829 (Project Summary), 1814 (Primary HTS)]; format: functional; settings: Homo sapiens
Cytochrome P450 3A4 = Cytochrome P450 3A4 (Homo sapiens, UniProt P08684);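 note: CYP3A4 tested as one member of a cytochrome P450 panel screen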
[3] = Luminescence Cell-Based Dose Response HTS to Identify Activators of Luciferase Translation or Activity in H4 […] Cells. [Related pubchem assays: 1829 (Project Summary), 1814 (Primary HTS)]; format: functional

Cytochrome P450 2C19, sequence (P33261 whole entry): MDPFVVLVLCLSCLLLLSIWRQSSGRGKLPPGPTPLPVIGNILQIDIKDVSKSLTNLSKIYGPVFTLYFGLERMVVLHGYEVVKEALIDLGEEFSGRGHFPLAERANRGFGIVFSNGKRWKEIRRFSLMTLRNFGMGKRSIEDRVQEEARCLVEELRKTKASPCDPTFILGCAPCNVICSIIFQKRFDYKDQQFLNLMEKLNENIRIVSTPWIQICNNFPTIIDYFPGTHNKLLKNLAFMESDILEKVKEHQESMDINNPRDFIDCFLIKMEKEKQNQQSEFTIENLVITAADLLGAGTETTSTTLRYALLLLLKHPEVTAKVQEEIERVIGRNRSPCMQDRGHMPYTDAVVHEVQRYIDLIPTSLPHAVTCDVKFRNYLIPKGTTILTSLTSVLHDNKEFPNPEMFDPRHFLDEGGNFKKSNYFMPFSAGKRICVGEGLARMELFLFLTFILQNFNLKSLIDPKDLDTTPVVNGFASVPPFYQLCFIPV
Cytochrome P450 3A4, sequence (P08684 whole entry): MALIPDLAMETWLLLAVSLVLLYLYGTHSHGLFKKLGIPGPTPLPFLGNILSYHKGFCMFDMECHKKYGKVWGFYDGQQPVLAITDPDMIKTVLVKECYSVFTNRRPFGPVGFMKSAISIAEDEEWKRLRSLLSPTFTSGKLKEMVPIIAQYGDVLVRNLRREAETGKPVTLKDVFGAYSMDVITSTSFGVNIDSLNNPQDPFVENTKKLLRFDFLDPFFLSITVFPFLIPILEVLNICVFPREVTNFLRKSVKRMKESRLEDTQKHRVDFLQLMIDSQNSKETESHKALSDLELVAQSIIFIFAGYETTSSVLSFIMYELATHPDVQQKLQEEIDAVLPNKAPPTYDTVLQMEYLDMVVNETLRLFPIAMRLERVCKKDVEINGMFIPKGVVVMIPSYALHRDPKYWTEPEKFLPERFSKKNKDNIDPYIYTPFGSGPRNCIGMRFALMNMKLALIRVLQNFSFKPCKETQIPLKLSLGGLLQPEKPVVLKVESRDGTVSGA

SMILES	EC50 [1]	EC50 [2]	further results
COC(=O)C1CCN(CC(=O)Nc2cc(Cl)ccc2OC)CC1	4.18 µM (active)	> 30 µM (not active)	
OC(COCCC12CC3CC(CC(C3)C1)C2)CN1CCCCC1 (stereo unspecified)	0.228 µM (active)	> 60 µM (not active)	
Cc1ccc(C(=O)N(C)c2ccc(OCC(=O)N3c4ccc(C)cc4C4CN(C)CCC43)cc2)cc1 (stereo unspecified)	0.527 µM (active)	> 60 µM (not active)	
O=c1c(-c2ccc(Cl)cc2)nc2cnc(N3CCNCC3)nc2n1Cc1cccs1			AC50 (Cytochrome P450 2C19): 25.1 µM (inconclusive)
CC(=O)Nc1ccc(S(=O)(=O)N2CCC(N(C)CCC(C)C)CC2)cc1			AC50 (Cytochrome P450 2C19): 25.1 µM (inconclusive)
Cc1sc2c(c1C)c(=O)n(-c1ccccc1)c1nnc(C)n21			AC50 (Cytochrome P450 2C19): 8.91 µM (inconclusive)
CN(C)/C=N/c1cnc(C(=O)c2ccc(Cl)cc2)n1C			EC50 (H4): 0.52 µM (active)
COc1ccc(-n2c(=O)c(C)nc3cnc(N(C)C)nc32)cc1			AC50 (Cytochrome P450 3A4): 20 µM (inconclusive)
CCN1CCN(c2ccc(S(=O)(=O)N3CCOCC3)cc2NC(=O)c2ccc(Cl)s2)CC1	0.588 µM (active)	> 30 µM (not active)	
O=C(CSc1cccc[n+]1[O-])c1cc2ccccc2o1	11.3 µM (active)	> 60 µM (not active)	
CCc1ccc(Oc2nc([N+](=O)[O-])nn2C)cc1	0.438 µM (active)	> 30 µM (not active)	
CNc1ncnc2ccc(-c3ccccc3CN(C)C)cc12			AC50 (Cytochrome P450 2C19): 20 µM (inconclusive)
COC(=O)Cc1c(OC)ccn(CCc2c[nH]c3ccccc23)c1=O			EC50 (H4): > 120 µM (not active)
CCC(C)C(=O)N1CCCC(c2nc(-c3cccs3)no2)C1 (stereo unspecified)			EC50 [3]: > 120 µM (not active); EC50 (H4): 71.6 µM (active)
OC(COCC1COc2ccccc2O1)CN1CCc2ccccc2C1 (stereo unspecified)			AC50 (Cytochrome P450 3A4): 17.8 µM (inconclusive)
O=c1c(-c2ccc(F)cc2)nc2cnc(N3CCNCC3)nc2n1C1CC1			AC50 (Cytochrome P450 2C19): 39.8 µM (inconclusive)

SMILES	EC50 [1]	EC50 [2]	further results
COC(=O)Cc1c[nH]c2cccc(OCC(O)CN(Cc3ccc([N+](=O)[O-])cc3)C(C)(C)C)c12 (stereo unspecified)	2.83 µM (active)	> 60 µM (not active)	
O=S(=O)(Cc1cc(Sc2ccc(Cl)cc2)nc(-c2ccccc2)n1)c1ccccc1	2.93 µM (active)	> 60 µM (not active)	
Cc1ccc(CN(C)CCc2ccccn2)cc1	0.309 µM (active)	> 60 µM (not active)	
COCCNc1nc(-c2c(C)noc2C)nc2ccccc12			AC50 (Cytochrome P450 3A4): 15.8 µM (inconclusive)
CN(Cc1ccccc1)C(=O)C1CCCN(Cc2cccc(Cl)c2)C1 (stereo unspecified)	0.11 µM (active)	> 60 µM (not active)	
Cc1[nH]c2ccccc2c1C(=O)CSc1nc2ccccc2c(=O)n1CCCN1CCOCC1			EC50 [3]: > 120 µM (not active); EC50 (H4): > 120 µM (not active)
COCCn1c(=O)c(-c2cccs2)nc2cnc(Oc3ccc(OC)cc3)nc21			AC50 (Cytochrome P450 2C19): 15.8 µM (inconclusive)
O=C(CCc1nnc(CCCCc2ccccc2)o1)NCCc1cccnc1	2.27 µM (active)	> 60 µM (not active)	
c1ccc(COc2ccc(-c3csnn3)cc2)cc1			EC50 [3]: 0.11 µM (active); EC50 (H4): 1.64 µM (active)
CC(CCc1ccccc1)N1CCN(Cc2ccccc2)CC1 (stereo unspecified)	0.101 µM (active)	10.2 µM (active)	
c1ccc(COc2ccccc2CNCc2cccnc2)cc1	8.11 µM (active)	> 60 µM (not active)	
Cc1ccc(C(=N)NOC(=O)CSc2ccccc2)cc1			EC50 [3]: 0.514 µM (active)
Cc1cc2nc(CCN(Cc3cccnc3)C(S)=Nc3ccc(F)cc3)[nH]c2cc1C	0.844 µM (active)	> 30 µM (not active)	
CCOC(=O)c1c2c(n3ccccc13)C(=O)c1ccccc1C2=O			AC50 (Cytochrome P450 3A4): 3.16 µM (inconclusive)
COc1cc([N+](=O)[O-])c(N2CCOCC2)c([N+](=O)[O-])c1OC	7.53 µM (active)	> 60 µM (not active)	
Cc1ccc(-c2onc3ccc(C4OCCO4)cc23)cc1			EC50 [3]: 28.4 µM (active); EC50 (H4): 25 µM (active)
